Experimental data published in US20130022629A1, “Modulators of Immunoinhibitory Receptor PD-1, and Methods of Use Thereof” (priority 2010, published 2013).
“Also recorded” adds a separate entry of the source.

Legend:
PD-1^−/− T cells = test: Specificity control: responses of PD-1^−/− (KO) T cells to compound; format: cell-based, mouse; conditions: PD-1^−/− T cells over the range of compound concentrations (FIG. 3)
Text: In vitro assays to test for compounds that interfere with the PD-1 function have been developed. These assays utilize unique mouse strains to specifically identify PD-1-specific effects. For example, a transgenic mouse that constitutively expresses PD-1 on T cells (PD-1^C) has been developed (43). It has recently been disclosed that PD-1^C T cells are very susceptible to signaling through PD-1, as measured by a decrease in T cell proliferation and cytokine production. These PD-1^C T cells can be used to assess the functional effects of small molecules. A PD-1 deficient mouse (PD-1^−/−) has also been developed (44), and T cells from such mice will serve as useful controls for in vitro as well as in vivo studies. In certain embodiments, PD-1^C T cells are cultured with a proliferative stimulus (anti-CD3) plus either PD-L2-Ig or a negative control Ig fusion protein. […] The specificity of the effects of sulfamonomethoxine and sulfamethizole were assessed by comparing responses of wild type, PD-1^c, and PD-1^−/− T cells. The effects of sulfamonomethoxine and sulfamethizole were evaluated over a range of compound concentrations (dilution series from 16 nM to 80 μM) and analyzed their effects on T cell proliferation and cytokine production. […]

PD-1 [1] = molecular target: T1, PD-1 (Mus musculus, UniProt Q02242); test: Primary screen: IFN-γ production by PD-1^C T cells with plate-bound anti-CD3 plus PD-L2Ig or control Ig; format: cell-based; conditions: compared with negative control wells on the plate (FIG. 2)
T1 construct: expressed in transfected cells; host or cells: CD4 T cells purified from spleens of PD-1^C transgenic mice (transgene-driven constitutive PD-1)
T1 sequence (Q02242 25-288): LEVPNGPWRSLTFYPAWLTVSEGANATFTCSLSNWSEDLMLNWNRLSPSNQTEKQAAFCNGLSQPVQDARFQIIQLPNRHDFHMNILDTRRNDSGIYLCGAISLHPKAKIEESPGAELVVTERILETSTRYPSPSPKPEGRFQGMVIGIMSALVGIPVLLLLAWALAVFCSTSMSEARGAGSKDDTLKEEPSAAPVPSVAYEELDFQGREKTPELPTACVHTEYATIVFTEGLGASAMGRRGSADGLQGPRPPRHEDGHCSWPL
Protocol: In certain embodiments, PD-1^C T cells are cultured with a proliferative stimulus (anti-CD3) plus either PD-L2-Ig or a negative control Ig fusion protein. PD-1^C T cells proliferate less and produce lower amounts of cytokines when cultured with PD-L2-Ig as compared to the negative control Ig fusion protein because PD-1-ligands deliver an inhibitory signal through PD-1. Compounds of interest will modulate this inhibitory interaction in wild type and PD-1^C T cells, but not in PD-1^−/− cells. Thus, compounds which are antagonists will block PD-1 inhibitory function and lead to increased T cell responses by wild type and PD-1^C T cells, but will not affect PD-1^−/− T cells. Conversely, compounds which are agonists will deliver an inhibitory signal, and reduce T cell responses by wild type and PD-1^C T cells, but not PD-1^−/− T cells.
Because it is believed that PD-1 can inhibit cytokine (IFN-γ) production to a greater extent than T cell proliferation in a number of situations (36, 44), in certain embodiments IFN-γ production was chosen as the readout, using a bead-based fluorescent ELISA assay. These beads have a broad dynamic range (about 1 pg/mL to about 5 ng/mL), robust detection of cytokines from complex solutions (including culture media), minimal time requirement (about 3 hours from start to finish), and homogeneous format (no washing required). […]

PD-1 [2] = molecular target: T1, PD-1; test: Validation (secondary screen): rescue of PD-1 mediated inhibition of IFN-γ production in PD-1^C (Tg) T cells; format: cell-based; conditions: PD-L2Ig versus control Ig (FIG. 3)
Text: In vitro assays to test for compounds that interfere with the PD-1 function have been developed. These assays utilize unique mouse strains to specifically identify PD-1-specific effects. For example, a transgenic mouse that constitutively expresses PD-1 on T cells (PD-1^C) has been developed (43). It has recently been disclosed that PD-1^C T cells are very susceptible to signaling through PD-1, as measured by a decrease in T cell proliferation and cytokine production. These PD-1^C T cells can be used to assess the functional effects of small molecules. A PD-1 deficient mouse (PD-1^−/−) has also been developed (44), and T cells from such mice will serve as useful controls for in vitro as well as in vivo studies.
In certain embodiments, PD-1^C T cells are cultured with a proliferative stimulus (anti-CD3) plus either PD-L2-Ig or a negative control Ig fusion protein. […]
The specificity of the effects of sulfamonomethoxine and sulfamethizole were assessed by comparing responses of wild type, PD-1^c, and PD-1^−/− T cells. The effects of sulfamonomethoxine and sulfamethizole were evaluated over a range of compound concentrations (dilution series from 16 nM to 80 μM) and analyzed their effects on T cell proliferation and cytokine production. […]

| Compound | effect on PD-1 KO T cells (PD-1^−/− T cells) | rescue of IFN-γ production in the primary screen (PD-1 [1]) | specificity: rescue/block of PD-1 mediated inhibition in PD-1 Tg cells (PD-1 [2]) |
| --- | --- | --- | --- |
| Cc1nnc(NS(=O)(=O)c2ccc(N)cc2)s1 [sulfamethizole] | no effect | rescue of IFN-γ production above the negative control wells | block of PD-1 mediated inhibition in PD-1 Tg cells only when PD-L2 was present; also recorded: rescue of PD-1 mediated inhibition in PD-1 Tg cells only when PD-L2 was present |
| COc1cc(NS(=O)(=O)c2ccc(N)cc2)ncn1 [sulfamonomethoxine] | no effect | rescue of IFN-γ production above the negative control wells | block of PD-1 mediated inhibition in PD-1 Tg cells only when PD-L2 was present; also recorded: rescue of PD-1 mediated inhibition in PD-1 Tg cells only when PD-L2 was present |
